The assay has as its target human 11β-HSD1 microsome fraction (Homo sapiens, UniProt P28845). The assay is described as follows: Enzymatic 11beta-HSD1 test (SPA-based detection). The assay is classed as biochemical. The conditions noted are these: [1,2-3H]-cortisone, NADPH, 37° C., 1 hour, read-out: IC50 (nM), biological activity. The method, then: First of all, 20 μl of the human 11β-HSD1 microsome fraction (0.2 μg of protein), prepared in 50 mM HEPES, 0.1% BSA (w/v), were applied to a plate with 384 wells. The test compounds (0.09 μl) were applied to the assay plate in 100% DMSO. The reaction was started by addition of 20 μl of [1,2-^3H]-cortisone (0.1 μCi/[…]) in assay buffer comprising 25 mM HEPES, 100 mM KCl, 5 mM NaCl, 2 mM MgCl2 and 0.25 mM NADPH. The plate was agitated at 37° C. for 1 hour. At the same time, a stop solution comprising 20 mg/ml SPA-PVT beads, 1.6 mg/ml monoclonal cortisol antibody and 0.01 mM SSR110887 (inhibitor from the Biovitrium patent) in 50 mM HEPES, 1 M NaCl and 1 M KCl was stirred at room temperature. To stop the reaction, 25 μl of the stop solution were added to each well. The plate was agitated gently at room temperature for 1 further hour and then centrifuged at 500 gav for 1 min, in order that the SPA beads could settle out. […] The comparative compound was glycyrrhetinic acid.
Protein and radioactive substrate were dispensed with a Biomek FX unit (Beckman Coulter) for handling liquids. The test compounds were added with a Cybi-Well equipped with a 90 n1 pin tool (CyBio).
Lit.: Solly S, Mundt S S, Zokian H J, Juy-Fang Ding G, Hermanowski-Vosatka A, Strulovici B and Zheng W. High-throughput screening of 11β-Hydroxysteroid dehydrogenase type 1 in scintillation proximity format.

Consider 5 compounds from US8828994B2, “Di- and tri-substituted oxathiazine derivatives, method for the production thereof, use thereof as medicine and drug containing said derivatives and use thereof” (SANOFI, priority 2011, dated 2014).

As usually defined, the IC50 is the point on the concentration scale where inhibition reaches its midpoint.

Each structure is given as a SMILES string.

Chain of human 11β-HSD1 microsome fraction (P28845 whole entry): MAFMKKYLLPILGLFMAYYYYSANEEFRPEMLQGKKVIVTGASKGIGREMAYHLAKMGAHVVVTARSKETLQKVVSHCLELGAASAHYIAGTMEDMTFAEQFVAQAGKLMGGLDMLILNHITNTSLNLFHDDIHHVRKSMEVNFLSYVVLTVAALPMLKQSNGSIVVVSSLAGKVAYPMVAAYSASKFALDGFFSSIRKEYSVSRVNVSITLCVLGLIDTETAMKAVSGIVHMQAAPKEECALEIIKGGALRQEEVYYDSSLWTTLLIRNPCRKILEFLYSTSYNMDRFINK

As to `O=S1(=O)N=C(NC2CCCCC2)OC(c2ccccc2)C12CC2` (centres unmarked) [Example 1, Cyclohexyl-(4,4-dioxo-8-phenyl-7-oxa-4lambda6-thia-5-aza-spiro[2.5]oct-5-en-6-yl)-amine], the half-maximal inhibitory concentration (IC50) was determined as 355 nM.

Take `CC(C)C1OC(NC2CCCCC2)=NS(=O)(=O)C12CC2` (centres unmarked) [Example 3, Cyclohexyl-(8-isopropyl-4,4-dioxo-7-oxa-4lambda6-thia-5-aza-spiro[2.5]oct-5-en-6-yl)-amine]: the half-inhibitory concentration (IC50) is 629 nM. `CCCC1OC(NC2CCCCC2)=NS(=O)(=O)C12CC2` (centres unmarked) [Example 4, Cyclohexyl-(4,4-dioxo-8-propyl-7-oxa-4lambda6-thia-5-aza-spiro[2.5]oct-5-en-6-yl)-amine]: the IC50 was found to be 518 nM. Consider `CC(C)(C)C1OC(NC2CCCCC2)=NS(=O)(=O)C12CC2` (centres unmarked) [Example 5, (8-tert-Butyl-4,4-dioxo-7-oxa-4lambda6-thia-5-aza-spiro[2.5]oct-5-en-6-yl)-cyclohexyl-amine], for which the 50% inhibitory concentration (IC50) was 438 nM.

`CC1OC(NC2CCCCC2)=NS(=O)(=O)C12CC2` (centres unmarked) [Example 6, Cyclohexyl-(8-methyl-4,4-dioxo-7-oxa-4lambda6-thia-5-aza-spiro[2.5]oct-5-en-6-yl)-amine]: the half-maximal inhibitory concentration (IC50) was 598 nM.
